Measured values: patent publication US6486190B1, “5-(2-imidazolinylamino)-benzimidazole derivatives, their preparation and their use as α-adrenoceptor agonists with improved metabolic stability” (The Procter & Gamble Company, priority 1997, dated 2002)
Where two headings read alike, the source gives them in different places.

How the values were obtained:
[1] = test system: alpha-2 adrenoceptors; assay: alpha-2 adrenergic activity and selectivity (receptor binding affinities and in vitro functional potencies); assay type: biochemical
Method: (§1) The pharmacological activity and selectivity of these compounds can be determined using published test procedures. […] (See, e.g., The Alpha-2 Adrenergic Receptors, L. E. Limbird, ed., Humana Press, Clifton, N.J.) The following in vivo assays are typically conducted in rodents or other species. Central nervous system activity is determined by measuring locomotor activity as an index of sedation. (See, e.g., Spyraki, C. & H. Fibiger, “Clonidine-induced Sedation in Rats: Evidence for Mediation by Postsynaptic Alpha-2 Adrenoreceptors”, Journal of Neural Transmission, Vol. 54 (1982), pp. 153-163). Nasal decongestant activity is measured using rhinomanometry as an estimate of nasal airway resistance. […] Antiglaucoma activity is determined by measuring intraocular pressure. […] Antidiarrheal activity is determined by measuring the ability of the compounds to inhibit prostaglandin-induced diarrhea. […] Efficacy in treating irritable bowel syndrome is determined by measuring the ability of compounds to reduce the stress-induced increase in fecal output. […] Antiasthma activity is determined by measuring the effect of the compound on bronchoconstriction associated with pulmonary challenges such as inhaled antigens. […] Activity in cough is determined by measuring the number and latency of the cough response to respiratory challenges such as inhaled citric acid. […]

[2] = precision cut liver slice assay (metabolic stability, N-methylation); assay type: in vitro ADME; settings: for metabolic N-methylation (N-methyl metabolites): in these assays: precision cut liver slice assay and pharmacokinetic studies in primates
Method: Metabolic stability of the compounds described above is evaluated in vitro in a precision cut liver slice assay and in vivo in pharmacokinetic studies in primates. The precision cut liver slice assay is a well recognized, validated in vitro model to study xenobiotic metabolism in animal species and humans. (See Ekins, S. “Past, present, and future applications of precision-cut liver slices for in vitro xenobiotic metabolism.” (Department of Medicine and Therapeutics, University of Aberdeen, UK.) Drug-Metab-Rev. (November, 1996) Vol. 28, No. 4: pp. 591-623). […] The assay provides data on the biotransformations taking place within intact hepatocytes of the species of interest. Thus the full compliment of phase I and phase II metabolic enzymes are available to metabolize the drug as is the case in vivo.

[3] = test system: central nervous system; assay: central nervous system activity (locomotor activity as an index of sedation); design: species or system rodents; settings: in vivo
Method: as §1

[4] = pharmacokinetic studies in primates: parent and N-methyl metabolite in urine after oral dosing; assay type: in vivo, cynomolgus monkeys
Method: For the pharmacokinetic studies, the compounds are administered orally to cynomolgus monkeys and measurements of administered benzimidazole compounds and corresponding N-methyl metabolites are made using 100 μL aliquots of urine collected over various time-periods post-dose. Typically, a chemical homolog or stable-isotope-labeled internal standard is added to each sample and then diluted 100× in water. Ten μL of prepared sample is then analyzed by gradient HPLC, with tandem mass spectrometry detection. Single ion reaction monitoring schemes are employed to selectively detect the test compound, its N-methyl metabolite (if present), and the internal standard.

Question: Which results are given for `Cc1c(NC2=NCCN2)ccc2[nH]cnc12` [5-(2-Imidazolinylamino)-4-methylbenzimidazole]?
Answer: alpha-2 adrenergic activity (pharmacological profile) [1]: very potent and selective alpha-2 adrenergic agonists; metabolic N-methylation (N-methyl metabolites) [2]: N-methyl metabolites were found; metabolism / methyl metabolite formation ([2]; precision cut liver slice assay): rapidly metabolized; CNS activity [3]: very low CNS activity

Question: What does the source list for `Cc1c(N=C2NCCN2)cc(C#N)c2[nH]cnc12` [Example 1, 7-Cyano-5-(2-imidazolinylamino)-4-methylbenzimidazole]?
Answer: metabolism / methyl metabolite formation [2]: no evidence of the methyl metabolite; CNS activity [3]: very low CNS activity

Question: For `CCc1c(NC2=NCCN2)ccc2[nH]cnc12` [4-ethyl-5-(2-imidazolinylamino)benzimidazole], which N-methylation in primates [4] is on record?
Answer: rapidly and extensively N-methylated

Question: And the “alpha-2 adrenergic activity (pharmacological profile)” value [1]?
Answer: selective alpha-2 adrenergic agonist

Question: What about the “metabolic N-methylation (N-methyl metabolites)” value [2] of the same compound?
Answer: N-methyl metabolites were found
